Source: patent publication US10457943B2, “Antisense oligonucleotides for treatment of cancer stem cells” (Andes Biotechnologies Global, Inc., priority 2013, dated 2019)
Entries after “also recorded” stand apart in the source; their conditions may differ.

Experiments:
[1] = system: SiHa cervical cancer cell line (HPV 16); test: Sphere formation assay, SiHa cervical cancer cell line; type: cell-based, human; settings: incubated with 45 μM cisplatin
Description: (§1) The ability of cervical cells from the SiHa cervical cancer cell line (transformed with Human Papillomavirus 16 or HPV 16) and from primary cultures of human uterine cervical cancer cells derived from patients to form spheroid bodies following treatment with antisense oligonucleotides directed to antisense non-coding chimeric mitochondrial RNA (ASncmtRNA) was determined. The assay utilized measured the numbers of spheroid bodies, also referred to herein as spheres, which are formed by cancer stem cells.
(§2) The experimental procedure and assay utilized herein measured the effect of antisense oligonucleotides that were targeted to ASncmtRNA on the number of spheres formed by cervical cancer cells (FIG. 6). Sphere formation was measured in the SiHa cervical cancer cell line and primary cultures of human cervical cancer cells derived from patients (CerCa). CerCa 1, CerCa 2 and CerCa 3 (transformed with Human Papillomavirus 45) were obtained from patient biopsies. […]
(§3) About 1×10^5 cells resuspended in MEGM™ medium supplemented with 20 ng/ml of hEGF, hydrocortisone, insulin, GA-1000 (Lonza), 0.5×B-27 without vitamin A (Invitrogen), 20 ng/ml of FGFb (Invitrogen) without CFS were seeded on ultra-low adherence plates (Corning). Ten days later, the spheres were counted under phase microscopy, collected and filtered using a nylon mesh of 70 μm to discard single cells. […]

[2] = system: CerCa 1 primary cervical tumor cells (HPV 16); test: Sphere formation assay, primary cervical tumor cells CerCa 1; type: cell-based, human; settings: incubated with 45 μM cisplatin
Description: as §1
as §2, with “(CerCa).” for “(CerCa). CerCa 1, CerCa 2 and CerCa 3 (transformed with Human Papillomavirus 45) were obtained from patient biopsies.”
as §3
(§4) The different primary cultures were analyzed with the PGMY09/11 Linear Array (Roche). […]

[3] = system: CerCa 2 primary cervical tumor cells (HPV 16); test: Sphere formation assay, primary cervical tumor cells CerCa 2; type: cell-based, human; settings: incubated with 45 μM cisplatin
Description: as §1
as §2, with “(CerCa).” for “(CerCa). CerCa 1, CerCa 2 and CerCa 3 (transformed with Human Papillomavirus 45) were obtained from patient biopsies.”
as §3, §4

[4] = system: CerCa 3 primary cervical tumor cells (HPV 45); test: Sphere formation assay, primary cervical tumor cells CerCa 3; type: cell-based, human; settings: incubated with 45 μM cisplatin
Description: as §1
as §2, with “(CerCa).” for “(CerCa). CerCa 1, CerCa 2 and CerCa 3 (transformed with Human Papillomavirus 45) were obtained from patient biopsies.”
as §3, §4

B16F10 melanoma cells [5] = test: Relapse and metastasis after surgical removal of B16F10 melanoma tumors (Example 3); type: in vivo, C57BL/6 mice
Description: One common clinical protocol for melanoma includes surgical resection follow by systemic administration of drugs. Similar protocols are used in the practice of other tumors. In the melanoma model presented in this representative example, B16F10 melanoma cells (100,000 cells in 200 μl of saline) were injected subcutaneously on the back of C57BL/6 mice. About 11 to 12 days post-cell injection, tumors between 700 to 1.000 mm3 developed (a 1,000 mm3 tumor in mice is considered equivalent to a 3,000 cc3 tumor in humans). […] Tumors were surgically resected under anesthesia and the wound washed once with 250 μl containing 100 μg of ASO 1560S or ASO 154. After surgical suture, a bolus of 200 μl saline containing 100 μg of ASO 154 or ASO 1560S was applied into the cavity left by the tumor. Three days post-surgery, mice received on alternative days, 3 intravenous (FIG. 9; 1st, 3rd, 5th arrows on timeline) or 3 intraperitoneal (FIG. 9; 2nd, 4th, 6th arrows on timeline) injections of 250 μl saline containing 100 μg of either ASO 1560S or ASO 154. Tumor growth was measured twice a week with a caliper.
Relapse of tumor growth in mice treated with ASO 154 was observed about 3 days post-surgery and tumor volume of about 1,500 mm3 was reached on about the 25th day post-cell injection (FIG. 9). These mice were euthanized under anesthesia, and the tumor and other organs were fixed and saved for further studies. […] Livers and lungs were analyzed for the presence of metastatic nodules.

RENCA cells [6] = test: Relapse and survival after surgical removal of RENCA kidney tumors, single post-surgery treatment (Example 4); type: in vivo, mice; settings: in liposomes
Description: 100,000 RENCA cells (ATCC® CRL-2947™ Mus musculus kidney renal adenocarcina) were injected subcutaneously at day 0. […] The animals were sutured and […] injected at the site of the removed tumor with 100 μg of ASO 154 (FIG. 11, squares) or ASO 1560S (FIG. 11, triangles), both formulated in liposomes, in 250 μl. No further treatment was given.

RENCA cells [7] = test: Relapse and survival after surgical removal of RENCA kidney tumors, intraperitoneal/intravenous treatment (Example 5); type: in vivo, mice; settings: day 60; 25 μg ip and iv injections in liposomes
Description: 100,000 RENCA cells (ATCC® CRL-2947™ Mus musculus kidney renal adenocarcina) were injected subcutaneously on day 0 in 8 mice. […] Tumors of all animals were removed by surgery and divided in 2 groups. […] Post-suture, a bolus of 250 μl was intraperiotoneally injected in the place of where tumor had grown: the control group was injected with ASO 154 and the treated group with ASO 1560S. On days 13, 15, 17 and 19, intraperitoneal injections of 25 μg ASO 154 (FIG. 12, circles) or 25 μg ASO 1560S (FIG. 12, squares) formulated in liposomes were injected in a volume of 250 μl. On days 14, 16 and 18, the mice were injected intravenously with the same protocol. On day 22, all control animals had tumors larger than 1,200 mm3 and were sacrificed. On day 60, all animals treated with ASO 1560S had no tumors and were still alive (FIG. 12).

B16F10 melanoma cells [8] = test: Relapse and survival after surgical removal of B16F10 melanoma tumors, intraperitoneal treatment (Example 6); type: in vivo, mice; settings: 25 and 50 μg intraperitoneal injections post-surgery
[9] = system: MB49 cells (mouse bladder cancer cells); test: Tumors and survival after surgical removal of MB49 bladder carcinoma tumors (Example 7); type: in vivo, mice
Description: Twelve mice were injected subcutaneously with a 100,000 MB49 cells (mouse bladder cancer cells). After 15 days mice had tumors of an average diameter of 800 mm3. Tumors were surgically removed (day 0) and a bolus of 200 μl containing 100 μg of ASO 154 (control) or ASO 1560S (active drug) was injected at the site of the surgery. Three days post-surgery mice were divided in 2 groups and treated intraperitoneally or intravenously with 100 μl injections containing ASO 154 (control group) or ASO 1560S (treated group) as indicated in FIG. 14. Only one mouse treated intraperitoneally with ASO 1560S developed a tumor.

[10] = FIG. 14, intraperitoneal or intravenous administration
[11] = treated intravenously after 100 μg bolus at surgery site

`N.N.[Cl][Pt][Cl]` [cisplatin] was tested, and the Sphere formation [1] was “abolished sphere formation”, the Sphere formation [2] was “abolished sphere formation” and the Sphere formation [3] was “abolished sphere formation”. For the same molecule, the Sphere formation [4] was “no effect; also recorded: resistant to cisplatin treatment”.
For “ASO 1560S: antisense oligonucleotide targeted to the mouse ASncmtRNAs (SEQ ID NO: 198) (antisense CACCCTCTAACCTAGAGAAG; all phosphorothioate, sugars by position and methylation of C not given here)”, the “Relapse of tumor growth after surgery” value (B16F10 melanoma cells [5]; 100 μg wound wash, 100 μg bolus, then 3 iv and 3 ip injections of 100 μg) was “No relapse; also recorded: prevented or suppressed cancer relapse; also recorded: absence of tumor relapse”, the Detectable tumors (B16F10 melanoma cells [5]; 130 days post-cell injection) was “without the presence of detectable tumors” and the “Metastatic nodules in lungs and liver” value (B16F10 melanoma cells [5]; organs collected at euthanasia) was “lacked the presence of metastatic nodules; also recorded: absence of metastatic nodules”. The Survival (RENCA cells [6]; day 61) was “still alive; also recorded: complete survival”, the “Tumors / tumor relapse after surgery” value (RENCA cells [6]; up to day 61, 100 μg wash and 100 μg injection) was “no tumors; also recorded: absence of tumor relapse” and the Survival (RENCA cells [7]) was “still alive”. For the same molecule, the “Tumors / relapse after surgery” value (RENCA cells [7]) was “no tumors; also recorded: absence of relapse”, the Survival (B16F10 melanoma cells [8]) was “complete survival” and the “Tumor relapse after surgery” value (B16F10 melanoma cells [8]) was “absence of the intradermal melanoma tumor relapse”. For the same molecule, the Survival [9, 10] was “complete survival”, the Tumors [9, 10] was “absence of tumors” and the “Number of mice that developed a tumor” value ([9]; treated intraperitoneally after 100 μg bolus at surgery site) was “one”. The Survival [9, 11] was “full survival” and the Tumors [9, 11] was “remained without tumors”.
